Reference: PubChem BioAssay (NCI)
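Cultured in 96-well plates, cells were exposed to test compound for 48 hours across five concentrations. Here, GI50 denotes the concentration required for 50% inhibition of growth. Definition used: TGI = concentration required for complete inhibition of growth.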

Assays:
Assay in all cases: DTP human tumour cell line panel, 48 h
A549 NSCLC = tested on: A549 NSCLC
PC-3 prostate = tested on: PC-3 prostate
SNB-75 CNS = tested on: SNB-75 CNS
OVCAR-5 ovarian = tested on: OVCAR-5 ovarian
U251 CNS = tested on: U251 CNS
KM12 colon = tested on: KM12 colon
NCI-H226 lung = tested on: NCI-H226 lung
ACHN renal = tested on: ACHN renal
RXF 393 renal = tested on: RXF 393 renal
SN12C renal = tested on: SN12C renal

SMILES | GI50 (A549 NSCLC) | TGI (A549 NSCLC) | GI50 (PC-3 prostate) | TGI (PC-3 prostate) | GI50 (SNB-75 CNS) | TGI (SNB-75 CNS) | GI50 (OVCAR-5 ovarian) | TGI (OVCAR-5 ovarian) | GI50 (U251 CNS) | TGI (U251 CNS) | GI50 (KM12 colon) | TGI (KM12 colon) | GI50 (NCI-H226 lung) | TGI (NCI-H226 lung) | GI50 (ACHN renal) | TGI (ACHN renal) | GI50 (RXF 393 renal) | TGI (RXF 393 renal) | GI50 (SN12C renal) | TGI (SN12C renal)
COc1cc2c(cc1OCCCCCCNC(=O)c1cc3ccccc3[nH]1)N=CC1CCCN1C2=O (stereo not given) | 39 µM | > 100 µM | 36 µM | > 100 µM | 64.2 µM | > 100 µM | > 100 µM | > 100 µM | 40 µM | > 100 µM | 34.8 µM | > 100 µM | 58 µM | > 100 µM | 35.2 µM | > 100 µM | 35.3 µM | 54.6 µM | 65 µM | > 100 µM
Nc1c(C(=O)Nc2cccc3ccccc23)sc2nc3c(cc12)CCCC3 | 3.33 µM | > 100 µM | 1.8 µM | > 100 µM | 1.04 µM | > 100 µM | > 100 µM | > 100 µM | 0.781 µM | > 100 µM | 0.675 µM | > 100 µM | 17.5 µM | > 100 µM | 4.37 µM | > 100 µM | 2.77 µM | > 100 µM | 6 µM | > 100 µM
COC(=O)c1[nH]nc(-c2ccccc2)c1N1CCCCC1 | 43.6 µM | > 100 µM | 38.9 µM | > 100 µM | 30.6 µM | 84.7 µM | 51.7 µM | > 100 µM | 26.6 µM | 78.8 µM | 55.8 µM | > 100 µM | 13.2 µM | 36.5 µM | 25.6 µM | 62.1 µM | 20.7 µM | 54.5 µM | 15.5 µM | 41.5 µM
Cc1cc(C)cc(Nc2nccc(-c3c(-c4ccc(F)cc4)ncn3C3CCNCC3)n2)c1 | 1.09 µM | 3.16 µM | 1.56 µM | 3.01 µM | 1.25 µM | 5.24 µM | 1.67 µM | 3.98 µM | 1.65 µM | 3.25 µM | 1.74 µM | 3.57 µM | 1.67 µM | 5.12 µM | 0.46 µM | 1.79 µM | 1.39 µM | 2.92 µM | 1.21 µM | 2.59 µM
c1ccc(Cn2cc3c(c2)-c2oncc2CC3)cc1 | 1.48 µM | 97.7 µM | 1.99 µM | > 100 µM | 1.11 µM | 27 µM | 2.3 µM | > 92.4 µM | 0.552 µM | 33 µM | 0.521 µM | 9.2 µM | 5.91 µM | 99.1 µM | 7.74 µM | > 100 µM | 1.12 µM | 4.76 µM | 2.26 µM | > 100 µM
O=C(Cc1ccccc1)Nc1nnc(CCSCCc2nnc(NC(=O)Cc3ccccc3)s2)s1 | 0.541 µM | > 100 µM | 4.55 µM | > 100 µM | 5.18 µM | 24.3 µM | > 100 µM | > 100 µM | 4.1 µM | 18.3 µM | 4.61 µM | > 100 µM | 29.9 µM | 97.4 µM | > 100 µM | > 100 µM | 17.9 µM | 68.9 µM | 5.34 µM | 44.7 µM
N#Cc1cc2cc3c4c(c2oc1=O)CCCN4CCC3 | – | > 100 µM | – | > 100 µM | – | > 100 µM | – | > 100 µM | – | > 100 µM | – | > 100 µM | – | > 100 µM | – | > 100 µM | – | > 100 µM | – | > 100 µM
C[C@@H]1CN(Cc2ccc(/C=C/c3n[nH]c4ccc5nc(-c6cn[nH]c6C(F)(F)F)c6c(c5c34)CCCC6)cc2)C[C@H](C)O1 | 2.56 µM | 15 µM | 3.93 µM | 18.8 µM | 0.643 µM | 10.1 µM | 4.06 µM | 16.2 µM | 5.45 µM | 19.5 µM | 2.03 µM | 14.3 µM | 6.19 µM | 32.8 µM | 2.57 µM | 13.7 µM | 1.85 µM | 5.79 µM | 2.46 µM | 14.9 µM
O=C1OCC2=C1C(c1cccc(F)c1)c1cc3c(cc1N2CCO)OCCO3 (stereo not given) | 0.32 µM | > 50 µM | 0.195 µM | > 50 µM | 0.113 µM | 0.38 µM | 0.541 µM | > 50 µM | 0.221 µM | > 50 µM | 0.172 µM | > 50 µM | 3.18 µM | > 50 µM | 0.386 µM | > 50 µM | 0.141 µM | > 50 µM | 0.345 µM | > 50 µM
